Blank lines part the entries; values can stand above or below the compound they belong to.
What was measured:
[1] = Dye stabilization in gels: GelStar-prestained agarose gels with additives, 6 days at 45° C., intensity of a 2.5 ng DNA band; type: physicochemical; conditions: GelStar in gel, 6 days in the dark
Experimental: SeaKem LE agarose gels (1% w/v, BMA Inc) were cast in 1×TAPS buffer (3-(N-tris(hydroxymethyl)methylamino)-propanesulfonic acid, 40 mM) in the presence of 1×GelStar nucleic acid stain (BMA Inc) and additives indicated in Table 1. Gels were incubated in the dark for 6 days at 45° C., and tested for the detection of DNA as follows: Gels were submerged in 1×TAPS electrophoresis buffer without dye. Then DNA was electrophoresed through the gel at 20 V/cm for one hour. The intensity of a 2.5 ng DNA band was examined by transillumination at 300 nm. The stain in the gel was considered stabilized if the fluorescence intensity of the DNA was more than 80% compared to when the gel was freshly prepared with stain. […] The quality of DNA resolution in fresh gels were recorded as “Good” when the DNA band was sharp, “Fair” when the DNA band was broad, and “Poor” when the DNA band was fuzzy.

[2] = Dye stabilization in solution: t½ of fluorescence intensity with lambda DNA; conditions: Table 3
[3] = buffer, pH 8.2
[4] = Dyes that are stabilized by the additive TPABr: t½ in 1xTAPS buffer; conditions: 1xTAPS pH 8.2, with or without 14.6 mM TPABr; transillumination at 300 nm

Compound: CCCCCCCCCCCC[N+](C)(C)C.[Br-] [Dodecyltrimethylammonium bromide]
Dye stabilization at 45° C. ([1]; additive 28 mM): No

increase of half-life by tetramethylammonium hydroxide alone [2]: 4 fold
t½ with TPABr [3]: over 100 days
t½ without TPABr [3]: 120 h
Compound: CCCN(CCCN(C)C)c1cc(/C=C2/Sc3ccccc3N2C)c2ccccc2[n+]1-c1ccccc1 [SYBR Green I]

Compound: Tween-20
Dye stabilization at 45° C. ([1]; additive 0.1% (v/v)): No

Compound: CCCCC[N+](CCCCC)(CCCCC)CCCCC.[OH-] [TPAOH, Tetrapentylammonium hydroxide]
Dye stabilization at 45° C. ([1]; additive 7.3 mM): Yes (The stain in the gel was considered stabilized if the fluorescence intensity of the DNA was more than 80% compared to when the gel was freshly prepared with stain)
Dye stabilization at 45° C. ([1]; additive 14.6 mM): Yes (The stain in the gel was considered stabilized if the fluorescence intensity of the DNA was more than 80% compared to when the gel was freshly prepared with stain)

Compound: CCCC[N+](CCCC)(CCCC)CCCC.[OH-] [Tetrabutylammonium hydroxide (TBAOH), Tetrabutylammonium hydroxide]
Dye stabilization at 45° C. ([1]; additive 14.6 mM): Yes (The stain in the gel was considered stabilized if the fluorescence intensity of the DNA was more than 80% compared to when the gel was freshly prepared with stain)

Compound: CC[n+]1c(-c2ccccc2)c2cc(N)ccc2c2ccc(N)cc21 [ethidium bromide]
effect of TPABr on the stability [4]: marginal

Compound: CN1CCN(c2ccc3[nH]c(-c4ccc5[nH]c(-c6ccc(O)cc6)nc5c4)nc3c2)CC1 [Hoechst 33258, Hoechst 33258 pentahydrate (bis-benzimide: BisBnz]
effect of TPABr on the stability [4]: marginal

Reference: patent US6365341B1, “Stabilization of highly sensitive nucleic acid stains in aqueous solutions” (priority 2000, dated 2002)
